Results on four molecules are retold here after paper PMC7277225, “Structures of FOX-4 Cephamycinase in Complex with Transition-State Analog Inhibitors” (Biomolecules, 2020).

In assay [1] the target is T1, FOX-4 cephamycinase (class C β-lactamase) (Escherichia coli, UniProt Q9L387).
T1 construct: native FOX-4, purified from periplasmic fractions of E. coli
In words: steady-state kinetics, nitrocefin hydrolysis, […] min pre-incubation. It counts as biochemical. As to conditions: read-out: FOX-4 ^1 IC50.

Assay [2] addresses T1, FOX-4 cephamycinase (class C β-lactamase). In words: X-ray crystal structure (soak, […] Å); IC50 with purified enzyme by nitrocefin hydrolysis. In kind it is biochemical.
Assay [3] shares this target. In words: biochemical. As to conditions: read-out: FOX-4 ^1 IC50.

Take `CO/N=C(\C(=O)NCB(O)O)c1csc(N)n1` [CTX-like]: the IC50 in assay [1] was 260 ± 20 nM.

Turning to `O=C(Cc1cccs1)N[C@@H](Cc1cccc(C(=O)O)c1)B(O)O` [EC04], in assay [1], the IC50 amounted to 420 ± 20 nM.

In the case of `CC(C)(O/N=C(\C(=O)NCB(O)O)c1csc(N)n1)C(=O)O` [LP06], in assay [2], the IC50 is 110 ± 20 nM.

On to `O=C(Cc1cccs1)N[C@H](B(O)O)c1cccc(C(=O)O)c1` [SM23], for which the half-inhibitory concentration (IC50) in assay [3] turned out to be 32 ± 3 nM.

A word on the IC50: it is the concentration at which inhibition is half-maximal.
